In patent US4444690A, “Technetium chelates” (priority 1982, dated 1984):
“And” between values parts separate entries of the source, which are not always exact repeats. Identical values can stand only once. Like-named read-outs stand apart in the source and are kept apart here. One block for each compound: values may come before it.

Experiments:
[1] = human, in vivo; cited from earlier work
[2] = cited from earlier work
[3] = mouse, in vivo, 5 min; cited from earlier work
plasma proteins = settings: cited from earlier work
renal tubular transport [4] = settings: mouse, in vivo
Protocol: (§1) A dose of 50 mg/kg of probenicid was given 10 minutes prior to injection of radiochemicals. OIH was injected simultaneously.
(§2) *Values are mean and S.E.M. percent injected dose at 10 min. post

[5] = rat, in vivo, iv, 1.5 h; cited from earlier work
[6] = rat, in vivo; cited from earlier work
[7] = Organ biodistribution time course of Tc-CO2-DADS components in mice (Table 1); type: in vivo, Hal Cr female albino mice; settings: mouse, in vivo
Protocol: Organ biodistribution and acute toxicity studies were carried out in mice, blood disappearance and bile appearance rates were determined by sampling of bood or bile in rats, and renal excretion rates of the two Tc-2,3-bis(mercaptoacetamido)propanoic acid components, Tc-DTPA, and OIH were determined in rabbits because of greater ease of urine sampling. The HPLC-purified Tc-2,3-bis(mercaptoacetamido)propanoate components were used directly except for dilution as necessary. In general HPLC collected volumes were 1 to 1.5 ml and were not diluted for rabbit studies, were diluted 2- to 10-fold for rat studies and were diluted about 20-fold for mouse studies. In most cases determinations were made with simultaneous administration of OIH.
The time course of organ distribution was determined in groups of six Hal Cr female albino mice. They were injected with 0.10 ml (0.5 uCi) of the preparation. For comparison purposes, 0.2 uCi OIH was added to each injection. The mice were placed in metabolic cages for the collection of excreted urine. At indicated intervals after injection, the urethra was ligated and the mice killed with chloroform vapor. The organs were removed and counted in a dual channel counter with correction for I-131 crossover into the Tc-99m channel.

[8] = Plasma protein binding, ultrafiltration; type: in vitro ADME; settings: plasma, duplicate determinations, read-out: binding to plasma proteins (converted)
Protocol: Studies of protein binding were carried out in plasma using an ultrafiltration method described at J.Nucl.Med. 22, 258-263, 1981.

renal tubular transport [9] = experiment: Tubular transport inhibition study with probenicid (Table 2); settings: mice; for Blood / Intestines / Kidneys / Liver / Urine (renal excretion): 10 min post injection; for Urine (renal excretion): 10 min
Protocol: as §1, §2

[10] = Blood disappearance rates in rats (FIG. 3); type: in vivo, male Sprague-Dawley rats; settings: rat, in vivo
Text: These determinations were made in male Sprague-Dawley rats.

[11] = probenicid treated (50 mg/kg, 10 min prior)

- Blood (renal tubular transport [4]; 10 min): 1.85 percent injected dose
- Intestines (renal tubular transport [4]; 10 min): 4.69 percent injected dose
- Kidneys (renal tubular transport [4]; 10 min): 4.25 percent injected dose
- Liver (renal tubular transport [4]; 10 min): 2.24 percent injected dose
Compound: 1,2-Bis(mercaptoacetamido)ethane [Tc-DADS]
- distribution of radioactivity [1]: confined radioactivity to the vascular system rather than the extracellular space as with Tc-DTPA
- effect of decreased renal function on renal excretion [1]: decreased renal function reduced renal excretion of Tc-DADS to a greater extent than OIH
- hepatobiliary excretion [1]: hepatobiliary excretion became significant
- renal retention ([2]; in vivo): no evidence of significant renal retention
- Kidneys [3]: 12.6 % of the dose
- in the urine [3]: 28%
- protein binding value (plasma proteins): 95%
- decrease in renal excretion with probenicid, in words (renal tubular transport [4]): decrease in renal excretion of Tc-DADS to a much greater extent than OIH
- biliary excretion of radioactivity in the absence of renal function [5]: 19%
- time at which radioactivity remaining in the blood was 2% [6]: 68 min
- time at which radioactivity remaining in the blood was 5% [6]: 19 min

- OIH Urine ([7]; 5 min): 42.02 percent injected dose
- OIH Urine ([7]; 10 min): 64.94 percent injected dose
- OIH Urine ([7]; 0.25 h): 78.24 percent injected dose
- OIH Urine ([7]; 2 h): 82.43 percent injected dose
- fraction unbound at 10 min ([8]; 10 minutes): 0.36
- fraction unbound at 0.5 h ([8]; 30 minutes): 0.44
- Blood (renal tubular transport [9]; control): 4.58 percent injected dose
- Intestines (renal tubular transport [9]; control): 1.12 percent injected dose
- Kidneys (renal tubular transport [9]; control): 2.83 percent injected dose
- Liver (renal tubular transport [9]; control): 1.31 percent injected dose
- decrease of renal excretion by probenicid treatment (renal tubular transport [9]; 10 minutes): 20%
- Blood (renal tubular transport [9]; [11]): 7.49 percent injected dose
- Intestines (renal tubular transport [9]; [11]): 2.18 percent injected dose
- Kidneys (renal tubular transport [9]; [11]): 3.79 percent injected dose
- Liver (renal tubular transport [9]; [11]): 2.68 percent injected dose
Compound: O=C(O)CNC(=O)c1ccccc1[131I] [OIH, I-131 o-iodohippurate]
- extraction efficiency ([2]; renal): about 67%
- Urine (renal excretion) (renal tubular transport [9]; control): 64.94 percent injected dose and 65 percent injected dose
- Urine (renal excretion) (renal tubular transport [9]; [11]): 52.62 percent injected dose and 52 percent injected dose
- blood disappearance in words [10]: most rapid disappearance through 75 minutes
